The NIST ThermoML archive (doi:10.1016/j.jct.2015.07.048)

How the values were obtained:
[1] = xn = mol fraction of the nth substance listed; details: 100 kPa, Liquid, x2 = 0; for viscosity: Cone and plate viscometry; for mass density: Vibrating tube method
[2] = Liquid; for viscosity / electrical conductivity: 100 kPa; for viscosity: Cone and plate viscometry; for electrical conductivity: Direct current cell with electrodes; for mass density: 101.33 kPa, Vibrating tube method

O=C1CCCO1 [γ-butyrolactone] + CCCn1cc[n+](C)c1.O=S(=O)([N-]S(=O)(=O)C(F)(F)F)C(F)(F)F
[1]
Details | mass density [kg/m3] | viscosity [mPa·s]
293.15 K | 1129.2 | 1.92
298.15 K | 1124.26 | 1.73
303.15 K | 1119.33 | 1.63
308.15 K | 1114.31 | 1.52
313.15 K | 1109.23 | 1.42
318.15 K | 1104.1 | 1.35
323.15 K | 1098.88 | 1.3

CCCn1cc[n+](C)c1.O=S(=O)([N-]S(=O)(=O)C(F)(F)F)C(F)(F)F
[2]
Details | electrical conductivity [S/m] | mass density [kg/m3] | viscosity [mPa·s]
293.15 K | 0.355 | 1479.32 | 54.19
298.15 K | 0.435 | 1474.24 | 43.94
303.15 K | 0.521 | 1469.4 | 35.92
308.15 K | 0.611 | 1464.43 | 30
313.15 K | 0.71 | 1459.44 | 25.32
318.15 K | 0.813 | 1454.63 | 21.58
323.15 K | 0.923 | 1449.73 | 18.82
